The results in this text go back to patent US9822147B2, “Methods of treating ophthalmic diseases using NPR-B agonists” (priority 2009, dated 2017).

Numbered stars: 1 amine (or outer) side, 2 acyl side, 3 side chain; on linkers, the order of the positions; unused ones are H or OH. Square brackets hold non-standard residues; d marks the D form. Peptide text beside a SMILES is read from it. * marks the point of attachment. X14 = NCC(=O)N[C@@H]1C[C@@H](C(=O)[*:2])N([*:1])C1; Pro(4R-NH2) = N[C@H]1CN[C@H](C(=O)O)C1; X2 = O=C([C@H]1CCCN([*:1])C1)[*:2]; Hyp = O=C(O)[C@@H]1C[C@@H](O)CN1; NHcycloheptyl = C1CCCC(N*)CC1; NMeL = CN[C@@H](CC(C)C)C(=O)O; dOrn = NCCC[C@@H](N)C(=O)O; Octanoyl = CCCCCCCC(=O)*

The assay concerns the target T1, NPR-B (Homo sapiens, UniProt P20594).
T1 construct: a functional assay using endogenously NPR-B expressing GTM-3 cells; endogenous in cells; host or cells: GTM-3 (human glaucoma trabecular meshwork cells)
T1 sequence (P20594 23-1047): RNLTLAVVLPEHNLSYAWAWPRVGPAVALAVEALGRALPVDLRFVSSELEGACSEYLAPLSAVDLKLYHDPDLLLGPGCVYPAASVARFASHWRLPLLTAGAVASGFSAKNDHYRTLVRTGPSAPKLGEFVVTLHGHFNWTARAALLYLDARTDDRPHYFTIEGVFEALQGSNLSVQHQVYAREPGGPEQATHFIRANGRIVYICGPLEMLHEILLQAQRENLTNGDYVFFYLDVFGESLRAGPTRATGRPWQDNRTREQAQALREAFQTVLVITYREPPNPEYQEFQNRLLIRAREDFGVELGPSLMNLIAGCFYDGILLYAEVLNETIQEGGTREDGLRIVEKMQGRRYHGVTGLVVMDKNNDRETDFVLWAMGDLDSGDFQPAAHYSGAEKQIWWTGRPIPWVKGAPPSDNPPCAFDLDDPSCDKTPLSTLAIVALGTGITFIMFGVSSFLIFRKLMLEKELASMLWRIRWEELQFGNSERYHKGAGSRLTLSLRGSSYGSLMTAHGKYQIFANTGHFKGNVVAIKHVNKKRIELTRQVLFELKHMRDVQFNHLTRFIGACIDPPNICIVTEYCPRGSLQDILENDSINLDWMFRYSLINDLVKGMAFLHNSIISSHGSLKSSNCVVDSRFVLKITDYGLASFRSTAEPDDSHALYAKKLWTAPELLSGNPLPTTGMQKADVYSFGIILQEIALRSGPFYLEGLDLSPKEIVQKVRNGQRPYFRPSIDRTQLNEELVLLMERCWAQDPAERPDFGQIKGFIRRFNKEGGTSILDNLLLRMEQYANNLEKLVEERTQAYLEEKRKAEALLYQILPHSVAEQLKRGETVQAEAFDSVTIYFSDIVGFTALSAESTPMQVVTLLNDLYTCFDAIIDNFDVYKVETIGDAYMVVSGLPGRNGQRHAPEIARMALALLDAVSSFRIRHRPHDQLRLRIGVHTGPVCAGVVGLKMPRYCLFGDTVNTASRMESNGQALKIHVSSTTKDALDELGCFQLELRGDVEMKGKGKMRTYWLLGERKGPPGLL
Briefly: NPR-B induced production of cyclic GMP in human glaucoma trabecular meshwork cells (GTM-3). In kind it is cell-based. As to conditions: group by EC50 and Emax (CNP = 100%); Table 4; read-out: Activity (group), NPR-B activation assayed with GTM-3 cells.
As for `CCCCCCCC(=O)N1CCC[C@H](C(=O)N[C@@H](Cc2ccccc2)C(=O)N[C@H](CC(C)C)C(=O)N[C@@H](CC(C)C)C(=O)N2C[C@H](O)C[C@H]2C(=O)N[C@H](C(=O)N[C@@H](CC(=O)O)C(=O)N[C@@H](CCCNC(=N)N)C(=O)N[C@H](C(N)=O)[C@@H](C)CC)[C@@H](C)CC)C1` [JAL-1625, Occ-Sni-Phe-leu-Leu-Hyp-Ile-Asp-Arg-Ile-NH2] (HELM PEPTIDE1{[CCCCCCCC(=O)[*:2]].[O=C([C@H]1CCCN([*:1])C1)[*:2]].F.[dL].L.[Hyp].I.D.R.I.[am]}$$$$V2.0), the EC50 was less than 1 µM. On to `CCCCCCCC(=O)N1CCC[C@H](C(=O)N[C@@H](Cc2ccccc2)C(=O)N[C@H](CCCN)C(=O)N[C@@H](CC(C)C)C(=O)N2C[C@H](N)C[C@H]2C(=O)N(C)[C@@H](CC(C)C)C(=O)N[C@@H](CC(=O)O)C(=O)N[C@@H](CCCNC(=N)N)C(=O)N[C@H](C(N)=O)[C@@H](C)CC)C1` [JAL-1318, Occ-Sni-Phe-orn-Leu-Tap-Nml-Asp-Arg-Ile-NH2] (Octanoyl-[X2]F[dOrn]L[Pro(4R-NH2)][NMeL]DRI-NH2), for which the EC50 is less than 1 µM.

`CCCCCCCC(=O)N1CCC[C@H](C(=O)N[C@@H](Cc2ccccc2)C(=O)N[C@H](CC(C)C)C(=O)N[C@@H](CC(C)C)C(=O)N2C[C@H](O)C[C@H]2C(=O)N(C)[C@@H](CC(C)C)C(=O)N[C@@H](CO)C(=O)N[C@@H](CCCNC(=N)N)C(=O)NC2CCCCCC2)C1` [JAL-1752, Occ-Sni-Phe-leu-Leu-Hyp-Nml-Ser-Arg-Che] (Octanoyl-[X2]F[dL]L[Hyp][NMeL]SR-NHcycloheptyl): the EC50 was less than 1 µM.

As to `CCCCCCCC(=O)N1CCC[C@H](C(=O)N[C@@H](Cc2ccccc2)C(=O)N[C@H](CC(C)C)C(=O)N[C@@H](CC(C)C)C(=O)N2C[C@H](NC(=O)CN)C[C@H]2C(=O)N(C)[C@@H](CC(C)C)C(=O)N[C@@H](CC(=O)O)C(=O)N[C@@H](CCCNC(=N)N)C(=O)N[C@H](C(N)=O)[C@@H](C)CC)C1` [JAL-1322, Occ-Sni-Phe-leu-Leu-Tap(G)-Nml-Asp-Arg-Ile-NH2] (Octanoyl-[X2]F[dL]L[X14][NMeL]DRI-NH2), the EC50 is less than 1 µM. Turning to `CCCCCCCC(=O)N1CCC[C@@H]1C(=O)N[C@@H](Cc1ccccc1)C(=O)N[C@H](CC(C)C)C(=O)N[C@@H](CC(C)C)C(=O)N1C[C@H](O)C[C@H]1C(=O)N[C@@H](CC(C)C)C(=O)N[C@@H](CC(=O)O)C(=O)N[C@@H](CCCNC(=N)N)C(=O)N[C@H](C(N)=O)[C@@H](C)CC` [JAL-1053, Occ-pro-Phe-leu-Leu-Hyp-Leu-Asp-Arg-Ile-NH2] (HELM PEPTIDE1{[CCCCCCCC(=O)[*:2]].[dP].F.[dL].L.[Hyp].L.D.R.I.[am]}$$$$V2.0), the EC50 was less than 1 µM. `CC[C@H](C)[C@H](NC(=O)[C@H](CCCNC(=N)N)NC(=O)[C@H](CC(=O)O)NC(=O)[C@H](CC(C)C)N(C)C(=O)[C@@H]1C[C@@H](O)CN1C(=O)[C@H](CC(C)C)NC(=O)[C@@H](CC(C)C)NC(=O)[C@H](Cc1ccccc1)NC(=O)[C@H]1CCCN(C(=O)CCCc2ccccc2)C1)C(N)=O` [JAL-1605, 1319-Sni-Phe-leu-Leu-Hyp-Nml-Asp-Arg-Ile-NH2] (HELM PEPTIDE1{[O=C(CCCc1ccccc1)[*:2]].[O=C([C@H]1CCCN([*:1])C1)[*:2]].F.[dL].L.[Hyp].[meL].D.R.I.[am]}$$$$V2.0): the EC50 was less than 1 µM. On to `CCCCCCCC(=O)N[C@H](C)C(=O)N[C@@H](Cc1ccccc1)C(=O)N[C@H](CC(C)C)C(=O)N[C@@H](CC(C)C)C(=O)N1C[C@H](N)C[C@H]1C(=O)N(C)[C@@H](CC(C)C)C(=O)N[C@@H](CC(=O)O)C(=O)N[C@@H](CCCNC(=N)N)C(=O)N[C@H](C(N)=O)[C@@H](C)CC` [JAL-1296, Occ-ala-Phe-leu-Leu-Tap-Nml-Asp-Arg-Ile-NH2] (HELM PEPTIDE1{[CCCCCCCC(=O)[*:2]].[dA].F.[dL].L.[N[C@@H]1C[C@@H](C(=O)[*:2])N([*:1])C1].[meL].D.R.I.[am]}$$$$V2.0), for which the EC50 was less than 1 µM.
